According to article PMC8092876, “A Leucyl-tRNA Synthetase Inhibitor with Broad-Spectrum Antimycobacterial Activity” (Antimicrobial Agents and Chemotherapy, 2021):
≈ marks a conversion by molar mass, not a printed value. Where two headings read alike, the source gives them in different places.

Columns and labels:
[1] = Mouse pharmacokinetics, oral administration; assay type: in vivo; conditions: for AUC: female, C57BL/6, whole blood
Method: For pharmacokinetic studies, CD-1 male mice (22 to 25 g) were used for intravenous route and C57BL/6 female mice (18 to 20 g) were used for oral route. All animal studies were ethically reviewed and carried out in accordance with European Directive 2010/63/EU and the GSK policy on the care, welfare, and treatment of animals.
EC/11770 was administered by intravenous route at 1 mg/kg single dose in saline and by oral gavage at 1 mg/kg and 10 mg/kg single doses in 1% methyl cellulose (1% MC). Aliquots of 20 μl of blood were taken from the lateral tail vein by puncture from each mouse (n = 3 per route and dose) at 5, 15, and 30 min 1, 2, 4, 6, 8, and 24 h postdose for intravenous route and at 15, 30, and 45 min 1, 2, 4, 6, 8, and 24 h postdose for oral route. The blood aliquots were mixed with 40 μl of water and stored at −80°C prior to analysis. The samples were processed by protein precipitation: aliquots of 20 μl were mixed with acetonitrile/methanol (80:20 vol/vol) and then filtered in 0.45 μm well-plates (hydrophobic polytetrafluorethylene [PTFE], Millipore). The filtrates were analyzed by UPLC-MS/MS for the establishment of compound concentration. The ultraperformance liquid chromatography (UPLC)-MS/MS system included a UPLC Acquity (Waters) and an API4000 mass spec. (AB Sciex). A volume of 7.5 μl of sample was injected into the system, with an UPLC solvent gradient of 2 min and with a positive multiple reaction monitoring (MRM) mass detection mode.
Pharmacokinetic analysis was performed by noncompartmental data analysis (NCA) with Phoenix WinNonlin 6.3 (Pharsight, Certara L.P), and supplementary analysis was performed with GraphPad Prism 6 (GraphPad Software, Inc.).

[2] = test system: M. abscessus Bamboo; assay type: cell-based
[3] = Stability in microsomes; assay type: in vitro ADME
Method: Intrinsic clearance (CLi) values were determined in mouse and human liver microsomes. Test compounds (final concentration 0.5 μM) were incubated at 37°C for 30 min in 50 mM potassium phosphate buffer (pH 7.4) containing 0.5 mg microsomal protein/ml. The reaction was started by addition of cofactor NADPH. At 0, 5, and 20 min, an aliquot (90 μl) was taken, quenched with acetonitrile-methanol containing an appropriate internal standard, centrifuged, and analyzed by liquid chromatography-tandem mass spectrometry (LC-MS/MS). The intrinsic clearance (CLi) was determined using the following equation: CLi = k(ml of incubation/mg microsomal protein) × (mg microsomal protein/g liver)where k is the turnover rate constant of the ln(% remaining compound) versus time regression and mg microsomal protein/g liver is 52.5 for both mouse and human.

[4] = test system: M. abscessus Bamboo RM3 (LeuS V417M); assay: microbe, parasite or virus in culture; assay type: cell-based; conditions: RM3, batch 1, LeuS V417M
[5] = test system: M. abscessus subsp. abscessus M9; assay: MIC assay in 96-well plate format; assay type: cell-based; conditions: Mycobacteroides abscessus; M. abscessus subsp. abscessus M9, clinical isolate
[6] = test system: M. tuberculosis H37Rv ATCC 27294; assay: MIC assay in 96-well plate format; assay type: cell-based; conditions: Mycobacterium tuberculosis, 168 h
[7] = test system: M. abscessus subsp. abscessus ATCC 19977; assay: MIC assay in 96-well plate format; assay type: cell-based; conditions: Mycobacteroides abscessus, ATCC19977; M. abscessus subsp. abscessus ATCC 19977, culture collection reference strain
[8] = test system: M. abscessus subsp. bolletii CCUG 50184T; assay: MIC assay in 96-well plate format; assay type: cell-based; conditions: Mycobacteroides abscessus, culture collection reference strain
[9] = test system: M. abscessus Bamboo biofilms; assay: Biofilm growth inhibition assay (biofilm MIC and MBC); assay type: cell-based, M. abscessus subsp. abscessus; conditions: Mycobacteroides abscessus
Method: The biofilm growth inhibition assay was performed as previously described ([40]). Innovotech MBEC 96-well biofilm assay plates (Innovotech 19111, Edmonton, AB, Canada) were used, and the supplier’s manual was followed with minor modifications. Mid-log-phase M. abscessus Bamboo precultures (OD600 = 0.4 to 0.6) were spun down at 3200 × g for 10 min at 25°C and washed with 7H9 medium without Tween 80 (7H9nt). Bacteria were resuspended into 25 ml 7H9nt to an OD600 of 0.0125 (1.0 × 10^6 CFU/ml). […] The lids with the pegs were transferred to a new MBEC multititer plate containing 150 μl of fresh 7H9nt medium per well without bacteria (0 h time point). After that, the pegs with growing biofilm were transferred once a day to a new multititer plate containing fresh 7H9nt medium. To measure growth of the biofilm formed on the peg, the pegs were washed in 200 μl of 7H9nt medium before they were aseptically removed and placed in 1.7 ml microcentrifuge tubes (VWR 87003-294, Rador, PA, United States) containing 500 μl PBS/Tween 80. The microcentrifuge tubes were vigorously vortexed at 2,000 rpm for 90 s at 25°C to detach the bacteria from the pegs before samples were serially diluted and plated for the determination of CFU/peg. […] The average drug-free biofilm growth was calculated by subtracting the average 24 h CFU/peg value from the average 72 h CFU/peg value for the untreated control pegs. The biofilm MIC was defined as the lowest drug concentration that reduced the CFU/peg by 90% relative to that of the average drug-free biofilm growth.

[10] = test system: M. abscessus Bamboo; assay: MIC assay in 96-well plate format; assay type: cell-based, M. abscessus subsp. abscessus; conditions: Mycobacteroides abscessus
[11] = test system: M. intracellulare ATCC 13950; assay: MIC assay in 96-well plate format; assay type: cell-based; conditions: Mycobacterium intracellulare, ATCC13950; M. intracellulare ATCC 13950, culture collection reference strain
[12] = test system: M. abscessus Bamboo; assay: MIC and MBC determination in culture tubes (planktonic)
Method: M. abscessus Bamboo culture was grown to mid-log-phase (OD600 = 0.4 to 0.6) and diluted to OD600 = 0.1 (1 × 10^7 CFU/ml). Aliquots of 1.2 ml of the resulting bacteria suspension were transferred into 14 ml vented, round-bottom tubes (Thermo Fisher 150268, Rochester, NY, United States). A 10-point 2-fold dilution series of the compound was prepared, starting at 100 times the desired highest concentration. The compound concentration range tested was 100 to 0.195 μM. For each drug concentration tested, 12 μl of drug stock was added to two tubes and vortexed. Aliquots of 12 μl of DMSO were added to two tubes as the untreated controls (1% final DMSO concentration). From each tube, 200 μl was transferred to wells on a 96-well plate and the OD600 was measured using a Tecan Infinite M200 plate reader (day 0 reading). The tubes (1 ml final volume) were incubated on a tilted rack at 37°C on an orbital shaker at 220 rpm. On day 2, tubes were vortexed before transferring 200 μl onto a 96-well plate to measure the OD600 again (day 2 reading). To determine the MIC, day 0 and day 2 OD600 values were analyzed as previously described for MIC determination in 96-well plate format. To determine the MBC, CFU measurement was done for the OD600 = 0.1 bacteria suspension on day 0 and for each tube on day 2. Specifically, serial 10-fold dilutions were prepared in phosphate-buffered saline (Thermo Fisher 10010023) containing 0.025% Tween 80 (PBS/Tween 80) and plated on 7H10 agar. The MBC was defined as the lowest concentration of drug that reduced the CFU/ml value by 10-fold relative to the day 0 CFU/ml value.

[13] = TB efficacy studies; stated as known, no reference given; cited from earlier work
[14] = mouse, oral 10 mg/kg, average (SD)

With CC(C)(O)COc1ccc(Br)c2c1B(O)O[C@@H]2CN [EC/11770] the AUC ([1]; mouse, oral 1 mg/kg, average (SD), read-out: AUC0–24_1 mg/kg) was 3560 ng·h/mL, the AUC ([1]; mouse, oral 10 mg/kg, average (SD), read-out: AUC0–24_10 mg/kg) was 40500 ng·h/mL and the Cmax_1 mg/kg ([1]; mouse (C57BL/6 female), oral 1 mg/kg, average (SD)) was 341 (51) ng/ml. The “%F_1 mg/kg” value ([1]; mouse, oral 1 mg/kg) was 100%, the “DNAUC0–24_1 mg/kg” value ([1]; mouse, oral 1 mg/kg, average (SD)) was 3,556 (179) ng h/ml per mg/kg and the Tmax_1 mg/kg ([1]; mouse, oral 1 mg/kg, range of values) was 1.0−2.0 h. For the same compound, the “%F_10 mg/kg” value ([1]; mouse, oral 10 mg/kg) was 100%, the “time above M. abscessus biofilm MIC” value ([1]; mouse, oral 10 mg/kg) was “approximately 60%” and the “time above MIC in M. abscessus planktonic cultures” value ([1]; mouse, oral 10 mg/kg) was 100%. For the same compound, the Cmax_10 mg/kg [1, 14] was 4,393 (1,260) ng/ml, the “DNAUC0–24_10 mg/kg” value [1, 14] was 4,053 (908) ng h/ml per mg/kg and the Tmax_10 mg/kg ([1]; mouse, oral 10 mg/kg, range of values) was 0.75−2.0 h. For the same compound, the frequency of resistance [2] was 3.9 × 10^−8 /CFU, the “Human in vitro CLint” value ([3]; human hepatic microsomes) was <0.5 <0.5 ml/min/g tissue and the “Mouse in vitro CLint” value ([3]; mouse hepatic microsomes) was <0.5 <0.5 ml/min/g tissue. The MIC ([4]; Mycobacteroides abscessus) was 60 to 75 µM (≈ 19.8 to 24.7 µg/mL), the MIC [4] was 62 µM (≈ 20.5 µg/mL) and the MIC [5] was 0.49 µM (≈ 0.162 µg/mL). It also gave an MIC [6] of 0.56 µM (≈ 0.185 µg/mL), an MIC [7] of 0.7 µM (≈ 0.231 µg/mL) and an MIC [8] of 1.3 µM (≈ 0.429 µg/mL). For the same compound, the MBC ([9]; 10-fold CFU/peg reduction vs 24 h) was 50 µM (≈ 16.5 µg/mL), the MIC ([9]; 48 h with drug, 90% reduction of CFU/peg growth) was 3.1 µM (≈ 1.02 µg/mL) and the MIC [10] was 0.9 µM (≈ 0.297 µg/mL). For the same compound, the MIC ([10]; 72 h, M. abscessus Bamboo, 7H9, 3 days, read-out: MIC) was 1.2 µM (≈ 0.396 µg/mL), the MIC ([10]; 72 h, M. abscessus Bamboo, CAMH broth, 3 days, read-out: MIC) was 0.7 µM (≈ 0.231 µg/mL) and the MIC [11] was 0.37 µM (≈ 0.122 µg/mL). The MBC ([12]; Mycobacteroides abscessus) was over 100 µM, the MIC ([12]; Mycobacteroides abscessus, 48 h) was 3 µM (≈ 0.99 µg/mL) and the MIC ([12]; planktonic M. abscessus Bamboo in culture tubes, day 2) was 3.0 µM (≈ 0.99 µg/mL). For the same compound, the MBC ([12]; planktonic M. abscessus Bamboo in culture tubes, day 2, 10-fold CFU/ml reduction vs day 0) was over 100 µM and the tolerated dose [13] was “up to 100 mg/kg”.
